According to US11136551B2, “In vitro method of differentiating a human pluripotent stem cell population into a cardiomyocyte cell population” (Ncardia B.V., priority 2015, dated 2021):

Tests used:
[1] = test system: human pluripotent stem cells; test: In vitro differentiation of human pluripotent stem cells into cardiomyocytes: yield and progress of differentiation; format: cell-based; conditions: in combination with XAV-939, relative to IWP-L6
Method: IGF may be added during any stage of the method of differentiating the human pluripotent stem cell population. IGF may, for example, be provided to the human pluripotent stem cell population immediately after plating or passaging the cells (i.e. after transferring of a small number of cells into a new vessel for cultivating) and before, for example, step a) is performed (the contacting of the cells with at least the Wnt-signaling agonist), or before step b) is performed (the contacting of the cells with XAV-939 and IWP-L6 and/or C-59). […]
For differentiation, cells were seeded in 12-well plates at density of 60,000 cells per well or a split ratio that was empirically determined to give 30-80% confluence after 4 days. […]
Cell numbers were determined with a Fuchs-Rosenthal counting chamber. […] Cells were counted and number of cells was determined using following equations: cells/ml=average count per square×dilution factor×5000 total cells=cells/ml×total original volume of cell suspension from which sample was taken. […] GFP fluorescence reports the expression of the endogenous NKX2.5 gene and enables identification/quantification of hPSC-derived cardiomyocytes during differentiation. Method of Measuring TNNT2 (Using FACS) The percentage TNNT2 expressing cells was measured by flow cytometric analysis. […]

[2] = test system: NKX2-5-GFP reporter stem cells; test: Percentage of cardiomyocytes by flow cytometry of GFP positive cells at day 14; format: cell-based, human; conditions: FIG. 3, reduction of IWP-L6 from 2 microMolar to 0.25 microMolar
Method: For differentiation, cells were seeded in 12-well plates at density of 60,000 cells per well or a split ratio that was empirically determined to give 30-80% confluence after 4 days. Culture media was […] days with a differentiation media as disclosed herein, for example containing 46.5% IMDM (Gibco 21056), 0.25% Bovostar BSA, 46.5% Ham's F12 with Glutamax, 2 mM Glutamax, 450 nM […], 0.05 mg/ml ascorbic acid, 0.5% 5000 U/ml Pen/Strep (Gibco 12070), 0.01% 1000* Trace elements mix B (Cellgro 99-176-CL), 0.1% 1000* Trace elements mix C (Cellgro 99-176-CL). In several experiments 0.1% ITS-x was used from day 4-14, i.e. during differentiation of the cells. Cell numbers were determined with a Fuchs-Rosenthal counting chamber. […] Cells were counted and number of cells was determined using following equations: cells/ml=average count per square×dilution factor×5000 total cells=cells/ml×total original volume of cell suspension from which sample was taken. […] GFP fluorescence reports the expression of the endogenous NKX2.5 gene and enables identification/quantification of hPSC-derived cardiomyocytes during differentiation. Method of Measuring TNNT2 (Using FACS) The percentage TNNT2 expressing cells was measured by flow cytometric analysis. […] Percentage of cardiomyocytes was determined at day 14 of differentiation using flow cytometry for detection/quantification of GFP positive cells. […]

[3] = test system: hIPSC lines; test: Percentage of cardiomyocytes by flow cytometry for Troponin-T (TNNT-2) at day 14; format: cell-based, human; conditions: for differentiation efficiency (TNNT-2 positive cells): FIG. 5, day 14
Method: For differentiation, cells were seeded in 12-well plates at density of 60,000 cells per well or a split ratio that was empirically determined to give 30-80% confluence after 4 days. Culture media was […] days with a differentiation media as disclosed herein, for example containing 46.5% IMDM (Gibco 21056), 0.25% Bovostar BSA, 46.5% Ham's F12 with Glutamax, 2 mM Glutamax, 450 nM […], 0.05 mg/ml ascorbic acid, 0.5% 5000 U/ml Pen/Strep (Gibco 12070), 0.01% 1000* Trace elements mix B (Cellgro 99-176-CL), 0.1% 1000* Trace elements mix C (Cellgro 99-176-CL). In several experiments 0.1% ITS-x was used from day 4-14, i.e. during differentiation of the cells. Cell numbers were determined with a Fuchs-Rosenthal counting chamber. Briefly, cells grown in monolayer cultures were detach from surface of plate using TrypLETM Select Enzyme (Life Technologies). A uniform cell suspension was transferred to the edge of hemocytometer counting chamber. Cells were counted and number of cells was determined using following equations: cells/ml=average count per square×dilution factor×5000 total cells=cells/ml×total original volume of cell suspension from which sample was taken. Method of Measuring NKX2.5 NKX-GFP reporter hESC and iPSC cells have been described previously. These cells express the fluorescent protein GFP under the control of the endogenous NKX2-5 promoter. GFP+ve cells mark cardiomyocytes (Elliott D A et al. Nat. Methods, 8 (2011), pp. 1037-1040; van den Berg C W et al., Development. 2015 Jul. 24. pii: dev.123810. [Epub ahead of print]). NKX 2.5 is transcription factor essential for heart development and it is expressed in the heart throughout life. GFP fluorescence reports the expression of the endogenous NKX2.5 gene and enables identification/quantification of hPSC-derived cardiomyocytes during differentiation. Method of Measuring TNNT2 (Using FACS) The percentage TNNT2 expressing cells was measured by flow cytometric analysis. Briefly, cells were dissociated with TrypLETM Select Enzyme (Life Technologies), washed with PBS, fixed and permeabilized with FIX & PERM® Cell Fixation and Permeabilization Kit (Life Technologies). Samples were incubated with Troponin T (TNNT2), Cardiac Isoform Ab-1, Mouse Monoclonal Antibody (ThermoFisher, MS-295-P1; at 1:1000 dilution) followed by incubation with secondary antibody Donkey Anti-mouse APC (Jackson Immuno, 715-136-151; at 1:500 dilution) both diluted in Fix&Perm Medium B. Samples were analyzed on a NovocyteTM Flow Cytometer (ACEA Bioscicences) or a MACSQuant VYB instrument (Miltenyi Biotech). […] Two […] cultured on feeders in KOSR (InvitroGen)/FGF supplemented DMEM-F12. To start differentiation, cells were dissociated using Accutase and resuspended in mTesR at a concentration of 60,000/ml cells, the cell suspension was seeded onto Matrigel coated 12-well plates. Cells were maintained for 4 days before onset of differentiation. Cells were treated for 2 days with 5 microMolar CHIR99021, followed by 2 days culture in the presence of specific Wnt inhibiting small molecules, next the cells were cultured for 10 days in differentiation medium. Percentage of cardiomyocytes (FIG. 4A; % TNNT2 positive cells at day 14) was determined at day 14 of differentiation using flow cytometry for the pan-cardiac marker Troponin-T (TNNT-2). […] Presence and absence or concentration have no significant effect on the total number of cells (FIG. 4B; cell count at day 14, in million cells/well). […]

[4] = test system: dishevelled 2 (Dvl2); conditions: HEK293 cells; cited from earlier work

For `Cc1cc(-c2ccc(CC(=O)Nc3ccc(-c4cccnc4)cc3)cc2)ccn1` [C59, 2-[4-(2-methylpyridin-4-yl)phenyl]-N-(4-pyridin-3-ylphenyl)acetamide], the “toxicity to the human pluripotent stem cells” value [1] was “more toxic” and the “yield of cell obtained with the method” value ([1]; data not shown) was “reduced yield”.

In the case of `O=C(CSc1nc2c(c(=O)n1-c1ccccc1)SCC2)Nc1ccc(-c2ccccc2)cn1` [IWP-L6, 2-[(4-oxo-3-phenyl-6,7-dihydrothieno[3,2-d]pyrimidin-2-yl)sulfanyl]-N-(5-phenylpyridin-2-yl)acetamide], the “differentiation efficiency (GFP positive cells)” value [2] was “increases the differentiation efficiency even further”, the “differentiation (% TNNT2 positive cells at day 14)” value ([3]; FIG. 4A, addition of IWP-L6 at 0.25 microMolar to XAV939) was “further improves the differentiation” and the “differentiation efficiency (TNNT-2 positive cells)” value ([3]; alone) was “about 70%”. The “phosphorylation of dishevelled 2 (Dvl2)” value [4] was “suppress phosphorylation of dishevelled 2 (Dvl2)”.

With `O=c1[nH]c(-c2ccc(C(F)(F)F)cc2)nc2c1CSCC2` [XAV-939, 3,5,7,8-Tetrahydro-2-[4-(trifluoromethyl)phenyl]-4H-thiopyrano[4,3-d]pyrimidin-4-one] the “differentiation efficiency (% TNNT2 positive cells at day 14)” value ([3]; FIG. 4A, further increase of concentration above 5 microMolar) was “reduces differentiation efficiency”, the “optimal concentration (% TNNT2 positive cells at day 14)” value ([3]; FIG. 4A, titration of XAV-939, two hIPSC lines) was 5 microMolar and the “differentiation efficiency (TNNT-2 positive cells)” value ([3]; addition of XAV939 to IWP-L6) was “further increased”.
